Laboratory results taken from paper PMC9437101, “Curcumin-based-fluorescent probes targeting ALDH1A3 as a promising tool for glioblastoma precision surgery and early diagnosis” (Communications Biology, 2022).
Values joined by “and” are separate entries in the source; they are usually repeats but may differ in a detail not shown here. Equal values may be shown once.

Tests used:
[1] = test system: GL261 murine glioma cells; test: Imaging flow cytometry of living GL261 cells incubated with probe; assay type: cell-based; conditions: 1 h incubation
Experimental: GL261 cells were incubated, with probe 10 or 11, for 1 h and after three rinses in PBS, cells were detached by trypsin treatment and visualized without fixation through a rMarkII flow cytometer (Amnis, Luminex Corporation, Austin, TX, USA) as previously described. Data were collected using Inspire software (Amnis, version 2.0) with the following parameters: 10,000 images per sample, 488 nm laser (25 and 100 mW) to excite the probes, 785 nm laser used to provide a side scatter signal and measurement of SpeedBeads (Amnis, Luminex Corporation, Austin, TX, USA), 830 nm laser used for internal bead calibration of core flow speed and focus, ×60 objective, in low-speed flow. Data were further analyzed by Ideas software (Amnis, version 6.1).

U87MG glioblastoma cells = test: Fluorescent microscopy of probe in cells; assay type: cell-based, human; conditions: 10 µM; for fluorescence in cells: 2 h
Experimental: In total, 20,000 cells/ml of U87MG, HEK293T, hASTRO and 4T1 were seeded onto glass cover slips in 24-well plates. The cells incubated at 37 °C in a 5% CO2 atmosphere overnight. Cells were washed with 1 ml of PBS buffer two times, then a 10 μM solution of probes was added to each well for 2 h. For nuclei staining, 1 µg/ml of DAPI was added the last 15 min of treatment. The cover slips were removed and washed with PBS buffer, and fixed with 0.5 ml of 4% formaldehyde solution for 10 min. The cover slips were washed with 1 ml of PBS, then slides were prepared using Mounting Media (Merck Life Science). Fluorescence images were acquired using a Leica THUNDER Imager 3D Live Cell (Leica Microsystems, Wetzlar, Germany) microscope equipped with an S Fluor 40×/1.3 objective using the LAS X software.

ALDH1A3 = target: T1, ALDH1A3 (Homo sapiens, UniProt P47895); test: LC-HRMS analysis of isoenzyme activity in presence of probe; assay type: biochemical; conditions: for oxidation of probe to carboxylic derivative / substrate behaviour: 1 h incubation, LC-HRMS
T1 construct: E. coli BL21 (DE3) were transformed with the full-length expression vector of each isoform; His-tag; made in house; host or cells: E. coli BL21 (DE3)
T1 sequence (P47895 1-512): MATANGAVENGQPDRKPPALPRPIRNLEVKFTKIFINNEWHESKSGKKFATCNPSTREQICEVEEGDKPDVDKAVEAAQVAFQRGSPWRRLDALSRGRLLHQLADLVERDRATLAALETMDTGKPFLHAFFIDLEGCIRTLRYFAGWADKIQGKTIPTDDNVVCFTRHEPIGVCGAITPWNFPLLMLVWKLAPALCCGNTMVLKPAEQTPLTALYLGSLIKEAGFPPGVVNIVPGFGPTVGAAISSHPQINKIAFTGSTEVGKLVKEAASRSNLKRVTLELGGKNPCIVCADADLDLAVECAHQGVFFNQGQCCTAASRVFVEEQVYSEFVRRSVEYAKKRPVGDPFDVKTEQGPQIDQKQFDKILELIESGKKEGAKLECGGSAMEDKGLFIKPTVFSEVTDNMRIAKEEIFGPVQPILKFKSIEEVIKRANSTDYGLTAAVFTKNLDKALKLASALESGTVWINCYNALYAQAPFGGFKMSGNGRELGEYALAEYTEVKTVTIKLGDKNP
Experimental: (§1) These analyses were carried out by using UPLC-HRMS procedure with Vanquish UPLC system coupled to a Thermo Scientific Q-Exactive Plus, operating in negative electrospray ionization mode. The chromatographic separation was carried out using a Phenomenex Synergi 4 µ Polar-RP 80 A (150 × 2 mm) equipped with a Phenomenex Polar-RP (4 mm × 2 mm) security guard column. The mobile phase consisted of A: acetonitrile 0.1% formic acid and B: 0.1% formic acid. We used a linear elution gradient, starting from 80% of A to 5% A in 3 min, 3 min at 5% A, an equilibration of 4 min for a total run time of 10.00 min, at 300 µl/min flow rate. The autosampler temperature was set at 15 °C, the injection volume was 5 µl and column was maintained at 40 °C. The heated electrospray ionization source was used, with a spray voltage of […], with a capillary temperature of 300 °C, a heater temperature of 350 °C, a sheat gas flow of 45 arbitrary units (AU), an auxiliary gas flow of 10 AU and a sweep gas flow of 0 AU. During the Parallel Reaction Monitoring acquisition in negative ion mode, the instrument operated at 17,500 resolution in presence of the inclusion list (m/z = 596.20384 and m/z = 612.19875 for Probe 10 and Probe 10-COOH respectively; m/z = 534.18819 and m/z = 506.156888 for Probe 11 and Probe 11-COOH respectively) with an automatic gain control target of 2 × 10^5 charges and a maximum injection time of 100 ms. Before injecting the samples, the blanks in the list were analyzed and every biological sample was analyzed in duplicate. The biological samples analyzed were as follow: (1) Enzymatic assay Buffer; (2) Enzymatic assay Buffer + NAD^+; (3) Enzymatic assay Buffer + Probe 10 or Probe 11; (4) Enzymatic assay Buffer + ALDH1A1; (5) Enzymatic assay Buffer + ALDH1A2; (6) Enzymatic assay Buffer + ALDH1A3; (7) Enzymatic assay Buffer + ALDH1A1 + Probe 10 or Probe 11; (8) Enzymatic assay Buffer + ALDH1A2 + Probe 10 or Probe 11; (9) Enzymatic assay Buffer + ALDH1A3 + Probe 10 or Probe 11. All samples were diluted 1:1 with ACN, then 1:100 in ACN-Water 1:1 prior the LC-HRMS analysis.

ALDH1A2 = target: T2, ALDH1A2 (Homo sapiens, UniProt O94788); test: as above; assay type: biochemical; conditions: 1 h incubation, LC-HRMS
T2 construct: E. coli BL21 (DE3) were transformed with the full-length expression vector of each isoform; His-tag; made in house; host or cells: E. coli BL21 (DE3)
T2 sequence (O94788 1-518): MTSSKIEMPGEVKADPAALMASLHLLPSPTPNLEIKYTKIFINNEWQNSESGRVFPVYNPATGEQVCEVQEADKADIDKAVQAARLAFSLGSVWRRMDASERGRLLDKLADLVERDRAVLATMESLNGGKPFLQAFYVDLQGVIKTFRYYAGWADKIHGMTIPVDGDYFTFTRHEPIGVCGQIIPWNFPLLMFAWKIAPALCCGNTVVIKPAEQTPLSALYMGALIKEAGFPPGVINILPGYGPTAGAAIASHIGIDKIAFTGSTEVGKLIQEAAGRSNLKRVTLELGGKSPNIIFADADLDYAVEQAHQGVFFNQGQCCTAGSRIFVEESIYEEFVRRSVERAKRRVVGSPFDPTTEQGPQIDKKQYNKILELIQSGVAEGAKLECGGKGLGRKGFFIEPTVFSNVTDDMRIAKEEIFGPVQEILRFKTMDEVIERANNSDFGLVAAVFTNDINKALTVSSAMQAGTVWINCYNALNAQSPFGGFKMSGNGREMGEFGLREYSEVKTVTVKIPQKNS
Experimental: as §1

COc1cc(/C=C/C(O)=C/C(=O)/C=C/c2ccc(OCc3cn(CCOc4ccc(C=O)cc4)nn3)c(OC)c2)ccc1O [Probe 10] was tested, and the “entry into and labelling of GL261 cells in vitro” value [1] was “able to enter and label the murine glioblastoma cells”, the “fluorescence in cells” value (U87MG glioblastoma cells) was “can determine fluorescence” and the “If ROI” value (U87MG glioblastoma cells; U87-MG, 2 h (Fig. 5g)) was 238.82 a.u. and 283.69 a.u. and 302.7 a.u. and 195.53 a.u. and 182.63 a.u. The “oxidation of probe to carboxylic derivative / substrate behaviour” value (ALDH1A3) was “no oxidation could be detected”, the “AREA TIC of Probe 10” value (ALDH1A3; ALDH1A3, 1 h) was 17952906 and 17991269 and 13247597 and 14014206 and the “oxidation of probe to carboxylic derivative / substrate behaviour” value (ALDH1A2) was “in part”.

CCOC(=O)Cn1cc(COc2ccc(/C=C/C(=O)/C=C(O)/C=C/c3ccc(O)c(OC)c3)cc2OC)nn1 [Probe 11] was tested, and the “entry into and labelling of GL261 cells in vitro” value [1] was “able to enter and label the murine glioblastoma cells”, the “fluorescence in cells” value (U87MG glioblastoma cells) was “fluorescence has been observed using Probe 11 only in U87MG cell lines” and the “oxidation of probe to carboxylic derivative / substrate behaviour” value (ALDH1A3) was “has not been shown to be a substrate”. The “oxidation of probe to carboxylic derivative / substrate behaviour” value (ALDH1A2) was “has not been shown to be a substrate”.
